{
  "source": "patent US20140088192A1",
  "about": "“SUBCUTANEOUSLY INFUSIBLE LEVODOPA PRODRUG COMPOSITIONS AND METHODS OF INFUSION” (SynAgile Corporation, priority 2010, published 2014)",
  "key": {"[1]": {"tested_on": "volunteer", "test": "Intramuscular / subcutaneous infusion of LDEE.HCl in human volunteers, local tolerability", "type": "in vivo", "settings": "s.c. abdomen, 0.24 mL of 2.3 M pH 4.5 over about 90 min in 8 boluses"}, "[2]": {"test": "Hydrolysis of LDEE salts to LD in aqueous solution, monitored by HPLC", "type": "physicochemical"}, "[3]": {"test": "Estimated / projected shelf life and operational life (time to LD saturation)", "settings": "for storage time without LD precipitation: 2.5±0.5 M aqueous", "text": "To minimize hydrolysis and LD precipitation, the LDE salt can be stored in its dry solid form, and dissolved in water or in an aqueous solution prior to use. Alternatively and preferably, the LDE salt can be dissolved, and stored as an aqueous solution at a pH and at a temperature where the rate of hydrolysis is slow. […] The operational life, meaning the life of the infused solution, is similarly pH dependent. The pH of a subcutaneously infused solution can be generally greater than about 4.0. […] To extend the shelf life, the solution may be optionally stored at a temperature below about 25° C., for example it may be refrigerated at about 5±3° C.\nAfter flushing with nitrogen, the solution was kept for 7 days at 23±2° C. in a vial sealed with a grey elastomeric, substantially oxygen impermeable septum. […] An operational life of 4 days suffices for infusion.\nAfter flushing with nitrogen, the solution was kept in a vial sealed with a grey, elastomeric oxygen impermeable septum.\nAfter flushing with nitrogen, the solution was kept in a vial sealed with a grey elastomeric, oxygen impermeable septum."}},
  "data": [
    {"smiles": "CCOC(=O)[C@@H](N)Cc1ccc(O)c(O)c1.Cl", "note": "[LDEE.HCl, LDEE Hydrochloride]", "values": [
      {"measurement": "nodule formation", "setting": "[1]", "result": "nor did it cause the formation of a nodule"},
      {"measurement": "LD/LDEE HPLC peak ratio", "setting": "[2]; 0.48M LDEE•HCl, 40° C., 0 hrs, initial pH 4.2", "result": 0.1292},
      {"measurement": "LD/LDEE HPLC peak ratio", "setting": "[2]; 0.48M LDEE•HCl, 40° C., 0 hrs, initial pH 4.4", "result": 0.1309},
      {"measurement": "LD/LDEE HPLC peak ratio", "setting": "[2]; 0.48M LDEE•HCl, 40° C., 0 hrs, initial pH 4.6", "result": 0.133},
      {"measurement": "LD/LDEE HPLC peak ratio", "setting": "[2]; 0.48M LDEE•HCl, 40° C., 0 hrs, initial pH 4.8", "result": 0.1352},
      {"measurement": "LD/LDEE HPLC peak ratio", "setting": "[2]; 0.48M LDEE•HCl, 40° C., 0 hrs, initial pH 5", "result": 0.1418},
      {"measurement": "LD/LDEE HPLC peak ratio", "setting": "[2]; 0.48M LDEE•HCl, 40° C., 0 hrs, initial pH 5.3", "result": 0.1547},
      {"measurement": "LD/LDEE HPLC peak ratio", "setting": "[2]; 0.48M LDEE•HCl, 40° C., 0 hrs, initial pH 5.6", "result": 0.1902},
      {"measurement": "LD/LDEE HPLC peak ratio", "setting": "[2]; 0.48M LDEE•HCl, 40° C., 2 hrs, initial pH 4.2", "result": 0.2171},
      {"measurement": "LD/LDEE HPLC peak ratio", "setting": "[2]; 0.48M LDEE•HCl, 40° C., 2 hrs, initial pH 4.4", "result": 0.2636},
      {"measurement": "LD/LDEE HPLC peak ratio", "setting": "[2]; 0.48M LDEE•HCl, 40° C., 2 hrs, initial pH 4.6", "result": 0.2998},
      {"measurement": "LD/LDEE HPLC peak ratio", "setting": "[2]; 0.48M LDEE•HCl, 40° C., 2 hrs, initial pH 4.8", "result": 0.3758},
      {"measurement": "LD/LDEE HPLC peak ratio", "setting": "[2]; 0.48M LDEE•HCl, 40° C., 2 hrs, initial pH 5", "result": 0.5202},
      {"measurement": "LD/LDEE HPLC peak ratio", "setting": "[2]; 0.48M LDEE•HCl, 40° C., 2 hrs, initial pH 5.3", "result": 0.8609},
      {"measurement": "LD/LDEE HPLC peak ratio", "setting": "[2]; 0.48M LDEE•HCl, 40° C., 2 hrs, initial pH 5.6", "result": 1.4028},
      {"measurement": "LD/LDEE HPLC peak ratio", "setting": "[2]; 0.48M LDEE•HCl, 40° C., 6 hrs, initial pH 4.2", "result": 0.3079},
      {"measurement": "LD/LDEE HPLC peak ratio", "setting": "[2]; 0.48M LDEE•HCl, 40° C., 6 hrs, initial pH 4.4", "result": 0.3994},
      {"measurement": "LD/LDEE HPLC peak ratio", "setting": "[2]; 0.48M LDEE•HCl, 40° C., 6 hrs, initial pH 4.6", "result": 0.4804},
      {"measurement": "LD/LDEE HPLC peak ratio", "setting": "[2]; 0.48M LDEE•HCl, 40° C., 6 hrs, initial pH 4.8", "result": 0.6546},
      {"measurement": "LD/LDEE HPLC peak ratio", "setting": "[2]; 0.48M LDEE•HCl, 40° C., 6 hrs, initial pH 5", "result": 0.9805},
      {"measurement": "LD/LDEE HPLC peak ratio", "setting": "[2]; 0.48M LDEE•HCl, 40° C., 6 hrs, initial pH 5.3", "result": 1.7239},
      {"measurement": "LD/LDEE HPLC peak ratio", "setting": "[2]; 0.48M LDEE•HCl, 40° C., 6 hrs, initial pH 5.6", "result": 2.8727},
      {"measurement": "LD/LDEE HPLC peak ratio", "setting": "[2]; 0.48M LDEE•HCl, 40° C., 24 hrs, initial pH 4.2", "result": 0.8294},
      {"measurement": "LD/LDEE HPLC peak ratio", "setting": "[2]; 0.48M LDEE•HCl, 40° C., 24 hrs, initial pH 4.4", "result": 1.1405},
      {"measurement": "LD/LDEE HPLC peak ratio", "setting": "[2]; 0.48M LDEE•HCl, 40° C., 24 hrs, initial pH 4.6", "result": 1.415},
      {"measurement": "LD/LDEE HPLC peak ratio", "setting": "[2]; 0.48M LDEE•HCl, 40° C., 24 hrs, initial pH 4.8", "result": 1.9804},
      {"measurement": "LD/LDEE HPLC peak ratio", "setting": "[2]; 0.48M LDEE•HCl, 40° C., 24 hrs, initial pH 5", "result": 3.0727},
      {"measurement": "LD/LDEE HPLC peak ratio", "setting": "[2]; 0.48M LDEE•HCl, 40° C., 24 hrs, initial pH 5.3", "result": 5.6312},
      {"measurement": "LD/LDEE HPLC peak ratio", "setting": "[2]; 0.48M LDEE•HCl, 40° C., 24 hrs, initial pH 5.6", "result": 9.6563},
      {"measurement": "LD/LDEE HPLC peak ratio", "setting": "[2]; 0.95M LDEE•HCl, 40° C., 0 hrs, initial pH 4.2", "result": 0.1238},
      {"measurement": "LD/LDEE HPLC peak ratio", "setting": "[2]; 0.95M LDEE•HCl, 40° C., 0 hrs, initial pH 4.4", "result": 0.1252},
      {"measurement": "LD/LDEE HPLC peak ratio", "setting": "[2]; 0.95M LDEE•HCl, 40° C., 0 hrs, initial pH 4.6", "result": 0.128},
      {"measurement": "LD/LDEE HPLC peak ratio", "setting": "[2]; 0.95M LDEE•HCl, 40° C., 0 hrs, initial pH 4.8", "result": 0.1354},
      {"measurement": "LD/LDEE HPLC peak ratio", "setting": "[2]; 0.95M LDEE•HCl, 40° C., 0 hrs, initial pH 5", "result": 0.1467},
      {"measurement": "LD/LDEE HPLC peak ratio", "setting": "[2]; 0.95M LDEE•HCl, 40° C., 0 hrs, initial pH 5.3", "result": 0.1628},
      {"measurement": "LD/LDEE HPLC peak ratio", "setting": "[2]; 0.95M LDEE•HCl, 40° C., 0 hrs, initial pH 5.6", "result": 0.1909},
      {"measurement": "LD/LDEE HPLC peak ratio", "setting": "[2]; 0.95M LDEE•HCl, 40° C., 2 hrs, initial pH 4.2", "result": 0.2073},
      {"measurement": "LD/LDEE HPLC peak ratio", "setting": "[2]; 0.95M LDEE•HCl, 40° C., 2 hrs, initial pH 4.4", "result": 0.2404},
      {"measurement": "LD/LDEE HPLC peak ratio", "setting": "[2]; 0.95M LDEE•HCl, 40° C., 2 hrs, initial pH 4.6", "result": 0.2994},
      {"measurement": "LD/LDEE HPLC peak ratio", "setting": "[2]; 0.95M LDEE•HCl, 40° C., 2 hrs, initial pH 4.8", "result": 0.3995},
      {"measurement": "LD/LDEE HPLC peak ratio", "setting": "[2]; 0.95M LDEE•HCl, 40° C., 2 hrs, initial pH 5", "result": 0.5443},
      {"measurement": "LD/LDEE HPLC peak ratio", "setting": "[2]; 0.95M LDEE•HCl, 40° C., 2 hrs, initial pH 5.3", "result": 0.8361},
      {"measurement": "LD/LDEE HPLC peak ratio", "setting": "[2]; 0.95M LDEE•HCl, 40° C., 2 hrs, initial pH 5.6", "result": 1.3007},
      {"measurement": "LD/LDEE HPLC peak ratio", "setting": "[2]; 0.95M LDEE•HCl, 40° C., 6 hrs, initial pH 4.2", "result": 0.2872},
      {"measurement": "LD/LDEE HPLC peak ratio", "setting": "[2]; 0.95M LDEE•HCl, 40° C., 6 hrs, initial pH 4.4", "result": 0.3618},
      {"measurement": "LD/LDEE HPLC peak ratio", "setting": "[2]; 0.95M LDEE•HCl, 40° C., 6 hrs, initial pH 4.6", "result": 0.4867},
      {"measurement": "LD/LDEE HPLC peak ratio", "setting": "[2]; 0.95M LDEE•HCl, 40° C., 6 hrs, initial pH 4.8", "result": 0.7068},
      {"measurement": "LD/LDEE HPLC peak ratio", "setting": "[2]; 0.95M LDEE•HCl, 40° C., 6 hrs, initial pH 5", "result": 1.0212},
      {"measurement": "LD/LDEE HPLC peak ratio", "setting": "[2]; 0.95M LDEE•HCl, 40° C., 6 hrs, initial pH 5.3", "result": 1.6832},
      {"measurement": "LD/LDEE HPLC peak ratio", "setting": "[2]; 0.95M LDEE•HCl, 40° C., 6 hrs, initial pH 5.6", "result": 2.7417},
      {"measurement": "LD/LDEE HPLC peak ratio", "setting": "[2]; 0.95M LDEE•HCl, 40° C., 24 hrs, initial pH 4.2", "result": 0.7792},
      {"measurement": "LD/LDEE HPLC peak ratio", "setting": "[2]; 0.95M LDEE•HCl, 40° C., 24 hrs, initial pH 4.4", "result": 1.0438},
      {"measurement": "LD/LDEE HPLC peak ratio", "setting": "[2]; 0.95M LDEE•HCl, 40° C., 24 hrs, initial pH 4.6", "result": 1.4684},
      {"measurement": "LD/LDEE HPLC peak ratio", "setting": "[2]; 0.95M LDEE•HCl, 40° C., 24 hrs, initial pH 4.8", "result": 2.2128},
      {"measurement": "LD/LDEE HPLC peak ratio", "setting": "[2]; 0.95M LDEE•HCl, 40° C., 24 hrs, initial pH 5", "result": 3.2875},
      {"measurement": "LD/LDEE HPLC peak ratio", "setting": "[2]; 0.95M LDEE•HCl, 40° C., 24 hrs, initial pH 5.3", "result": 5.6263},
      {"measurement": "LD/LDEE HPLC peak ratio", "setting": "[2]; 0.95M LDEE•HCl, 40° C., 24 hrs, initial pH 5.6", "result": 9.5612},
      {"measurement": "LD concentration versus estimated saturation concentration", "setting": "[2]; 0.95 M and 0.48 M, 40° C., 24 hrs, up to about pH 5.5", "result": "remained below the estimated saturation concentration"},
      {"measurement": "% of LDEE.HCl hydrolyzed in the 21 week period, in addition to initial 0.16%", "setting": "[2]; 2.4 M, pH 4.0, about 4° C.", "result": 1.34, "unit": "%"},
      {"measurement": "% of LDEE.HCl hydrolyzed in the 21 week period, in addition to initial 0.15%", "setting": "[2]; 2.5 M, pH 3.0, about 4° C.", "result": 0.36, "unit": "%"},
      {"measurement": "% of the LDEE.HCl hydrolyzed to LD", "setting": "[2]; 2.5 M, pH 4.5 citrate, 24 hours at 23±2° C.", "result": 0.39, "unit": "%"},
      {"measurement": "projected storage (shelf) life", "setting": "[3]; 2.5 M solution at 4° C. (per Example 18)", "result": "greater than 4 years"},
      {"measurement": "projected shelf life", "setting": "[3]; 2.5 M solution, pH 2.3, about 4° C.", "result": "about 4.7 years"},
      {"measurement": "operational life (time to LD saturation)", "setting": "[3]; 2.5 M, pH 4.5 citrate, 29° C.-30° C.", "result": 4, "unit": "days"},
      {"measurement": "operational life, projection", "setting": "[3]; 2.5 M, pH 4.5 citrate, 37° C. body temperature", "result": "about 2 days"},
      {"measurement": "operational life (time to LD saturation)", "setting": "[3]; 2.5 M, pH 4.5 citrate, about 23° C.", "result": "about 9 days"},
      {"measurement": "storage time without LD precipitation", "setting": "[3]; pH 2.5±0.5, about 5±3° C.", "result": "about 3 years"},
      {"measurement": "storage time without LD precipitation", "setting": "[3]; pH about 1.5 to about 3.5, about 5±3° C.", "result": "more than 1 year"},
      {"measurement": "% of the LDEE.HCl hydrolyzed at which LD saturation is reached", "setting": "[3]; 2.7 M LDEE.HCl, LD saturation about 17 grams per liter", "result": "about 3.4%"},
      {"measurement": "Estimated pH 2.3 storage life at 4° C.", "setting": "[3]; about 2.0 M LDEE.HCl solution", "result": 50, "unit": "months"},
      {"measurement": "Estimated pH 2.3 storage life at 25° C.", "setting": "[3]; about 2.0 M LDEE.HCl solution", "result": 2, "unit": "months"}
    ]}
  ]
}
